Measured values taken from article PMC4183595, “Study on the Main Components Interaction from Flos Lonicerae and Fructus Forsythiae and Their Dissolution In Vitro and Intestinal Absorption in Rats” (PLoS ONE, 2014).
Read-outs that look alike come from different tables or passages of the source.

Columns and labels:
[1] = Rat in vivo pharmacokinetics study after oral administration of product A, B or C; design: species or system Male Sprague-Dawley (SD) rats; AUC 0→t in product C group, increased to % compared to that in product A or B groups: concentration or dose not given beside the values; details: for AUC(0-t) / AUC(0-inf) / MRT / Tmax / half-life / Cmax: male, Sprague-Dawley, rat, plasma; for AUC(0-t) / AUC(0-inf) / MRT / Tmax / half-life: 10 mL·kg^−1; for AUC(0-t) / AUC 0→t in product C group, increased to % compared to that in product A or B groups: rats; for AUC(0-t): oral product C group; for AUC(0-inf) / MRT / Tmax / half-life / Cmax: po, 10 mL·kg^−1, rats; for half-life: read-out: T 1/2z; for Cmax: mean±SD; for AUC 0→t in product C group, increased to % compared to that in product A or B groups: oral, product C versus product A or B
Protocol: Product A (extract mixed with FLJ extract and water, (1∶1, v / v )), product B (extract mixed with FF extract and water, (1∶1, v / v )) and product C (extract mixed with FLJ and FF extracts, (1∶1, v / v )) were given to oral administration to rats, respectively.
Male SD rats (∼250 g) were kept in an environmentally controlled breeding room (temperature: 20±2°C, relative humidity: 60±5%) for 1 week. […] The rats were randomly divided into three groups with no less than six rats in each group to receive various administrations at a single oral dose (10 mL·kg^−1) by gastric gavage. […] Subsequently, plasma was prepared by centrifugation at 1,816×g, 4°C for 7 min, and immediately analyzed or stored at −70°C for further analysis.
The main pharmacokinetic parameters including the peak plasma concentration (C max), the time to C max (T max), the AUC from 0 to infinity (AUC 0–∞), the AUC form 0 to time (AUC 0–t), mean residence time (MRT), and terminal elimination half-life (T 1/2z) were calculated by the non-compartmental analysis of plasma concentration vs. time data using the “DAS 2.1.1” software (Mathematical Pharmacology Professional Committee of China, Shanghai, China).

[2] = test system: Caco-2 cells; test: In vitro Caco-2 monolayer model, apical to basolateral transport (P app); format: in vitro ADME, human; details: Caco-2 monolayer, HBSS pH 6.0, apical to basolateral
Protocol: Caco-2 cells were cultured in high glucose DMEM with 10% fetal bovine serum, 1% nonessential amino acids. Cells were cultured in a humidified atmosphere of 5% CO2 at 37°C. After reaching 80% confluens, Caco-2 cells were harvested with 0.05% trypsin-EDTA solution and seeded on top of CC inserts in 6-well plates, which has a surface area of 4.2 cm^2, at a density of 1.0×10^5 cells/cm^2. The protocols for cell culture in Transwell inserts were similar to those described previously.
Hank’s balanced salt solution (HBSS) was used as the transport buffer for the transport study in Caco-2 cells monolayer model. It was prepared by dissolving 9.5 grams of commercial available HBSS powder in 1000 mL water.
Cell culture experiments were described previously. Briefly, after culture medium was aspirated, the cell monolayers were washed three times with blank HBSS. […] The monolayers were incubated with the blank HBSS for 1 h with 37°C. Thereafter the incubation medium was aspirated. Afterwards, a solution containing the compound was loaded onto the apical side. The amounts of transported compound were measured as a function of time. […] The samples were taken at 0, 1, 2, 3 and 4 h after incubation. At the end of the transport experiment, integrity of the monolayer was monitored by TEER value.

[3] = test system: P-gp, MRP2 and BCRP; design: method as in PMID 24035225, PMID 25442264; details: previous study; ref [21]–[22]; cited from earlier work
[4] = single oral dose 10 mL·kg^−1 of product A (FLJ extract and water 1:1)
[5] = single oral dose 10 mL·kg^−1 of product C (FLJ and FF extracts 1:1)

O=C(/C=C/c1ccc(O)c(O)c1)O[C@H]1[C@H](O)C[C@](O)(C(=O)O)C[C@H]1O [Cryptochlorogenic acid]
AUC(0-t) [1]: 321 ng·h/mL
AUC(0-inf) ([1]; oral product A): 196 ng·h/mL
MRT ([1]; oral product A): 5.55 h
Tmax ([1]; oral product A): 0.167 h
half-life ([1]; oral product A): 1.73 ± 0.782 h
AUC(0-inf) ([1]; oral product C): 351 ng·h/mL
MRT ([1]; oral product C): 7.55 h
Tmax ([1]; oral product C): 0.167 h
half-life ([1]; oral product C): 4.65 ± 0.287 h
Cmax [1, 4]: 352 ± 29.4 ng/mL
Cmax [1, 5]: 449 ± 22.8 ng/mL
AUC 0→t in product C group, increased to % compared to that in product A or B groups [1]: 235%
P app in product C group, % compared to that in product A group [2]: 133%
efflux transporters influencing the intestinal absorption [3]: influenced by P-gp, MRP2 and BCRP

C[C@@H]1O[C@@H](OC[C@H]2O[C@@H](OCCc3ccc(O)c(O)c3)[C@H](O)[C@@H](O)[C@@H]2OC(=O)/C=C/c2ccc(O)c(O)c2)[C@H](O)[C@H](O)[C@H]1O [Forsythoside A]
AUC(0-t) [1]: 420 ng·h/mL
AUC(0-inf) ([1]; oral product B): 229 ng·h/mL
MRT ([1]; oral product B): 3.75 h
Tmax ([1]; oral product B): 0.167 h
half-life ([1]; oral product B): 4.6 ± 1.04 h
AUC(0-inf) ([1]; oral product C): 773 ng·h/mL
MRT ([1]; oral product C): 7.53 h
Tmax ([1]; oral product C): 0.167 h
half-life ([1]; oral product C): 5.98 ± 0.357 h
Cmax ([1]; single oral dose 10 mL·kg^−1 of product B (FF extract and water 1:1)): 102 ± 6.19 ng/mL
Cmax [1, 5]: 182 ± 38.6 ng/mL
AUC 0→t in product C group, increased to % compared to that in product A or B groups [1]: 230%
P app in product C group, % compared with that in product B group [2]: 165%
efflux transporters influencing the intestinal absorption [3]: affected by P-gp and MRP2, not BCRP

O=C(/C=C/c1ccc(O)c(O)c1)O[C@@H]1C[C@@](O)(C(=O)O)C[C@@H](O)[C@@H]1O [Neochlorogenic acid]
AUC(0-t) [1]: 259 ng·h/mL
AUC(0-inf) ([1]; oral product A): 138 ng·h/mL
MRT ([1]; oral product A): 5.37 h
Tmax ([1]; oral product A): 0.167 h
half-life ([1]; oral product A): 7.63 ± 0.637 h
AUC(0-inf) ([1]; oral product C): 404 ng·h/mL
MRT ([1]; oral product C): 6.45 h
Tmax ([1]; oral product C): 0.167 h
half-life ([1]; oral product C): 8.58 ± 0.467 h
Cmax [1, 4]: 75.7 ± 30.1 ng/mL
Cmax [1, 5]: 181 ± 65 ng/mL
AUC 0→t in product C group, increased to % compared to that in product A or B groups [1]: 286%
P app in product C group, % compared to that in product A group [2]: 136%
efflux transporters influencing the intestinal absorption [3]: influenced by P-gp, MRP2 and BCRP
